Measurements from US11897862B2 (Gilead Sciences, Inc., priority 2022, dated 2024).

What was measured:
[1] = target: T1, IKZF1 (Homo sapiens, UniProt Q13422+Q96SW2); test: HEK293 HiBiT in vitro degradation of IKZF1; assay type: cell-based; conditions: for Dmax: HEK293, HEK293 HiBiT; for Dmax / IKZF1 Dmax: maximum degradation at the highest concentration tested; for DC50 / IKZF1 Dmax: HEK293 HiBiT; for DC50: 18-24 hr incubation, normalized to DMSO control, read-out: IKZF1 EC50
T1 construct: expressed in transfected cells
Experimental: (§1) In vitro degradation of IKZF1, IKZF2, and SALL4 was measured using HiBiT protein tagging and detection technology (Promega).
(§2) HiBit technology was used to develop the quantitative assays to measure the cellular IKZFs level by tagging an 11 amino acid HiBit peptides […] to the protein of interest. Reporter plasmids were generated by fusing a linker sequence ([…]) followed by the HiBit tag at the C-terminus of IKZF1, IKZF2, and SALL4. The fusion fragments were subsequently cloned into pcDNA5 pcDNA™5/FRT/TO plasmids (Thermo Fisher, cat #V652020) downstream of the tetracycline operator. The resulting plasmids were co-transfected with pOG44 Flp-Recombinase Expression Vector (Thermo Fisher, cat #V600520) into Flp-In™ T-REx HEK293 line (Thermo Fisher, cat #R78077) and a stable cell pool was selected by adding 100 µg/ml of Hygromycin (Thermo Fisher, cat #10687010). The reporter cell enabled Tet-On inducible reporter expression from a single copy of the integrated gene.
(§3) On Day 1, Cells were grown to ˜80% confluency in tissue culture medium (DMEM Glutamax (Gibco10569), 10% Tet free FBS (Takara 631106), and PenStrep Glutamin (Gibco 10378)) in tissue culture flasks. Doxycycline was then added to a final concentration of […] to induce reporter expression at 37° C. overnight.
(§4) On Day 2, 125 nL of serially-diluted solution of testing compounds were dispensed into 384-well white solid assay plates via ECHO acoustic liquid handler. Cells were lifted by 0.25% Trypsin (Gibco 25200) then pelleted by centrifugation (Beckman Avanti J-E) at 500×g for 5 min. Cell pellets were resuspended in TC medium at the concentration of 3e5/mL and 25 μL of cell suspension were added into each well of compound-spotted plates. The plates were returned to a 37° C. incubator overnight (18-24 hr).
(§5) On Day 3, assay plates were removed from the tissue culture incubator and 25 μL of Nano-Glo lytic detection system (Promega, cat #N3030) was added to each well. Plates were incubated at r.t. for 3 min with shaking, and luminescence was read using an Envision reader (Perkin Elmer).
(§6) To assess the IKZF1, IKZF2, and SALL4 degrader potential of exemplified compounds of this disclosure and certain Reference Compounds EC50 and Dmax values were determined for the compounds of Examples 1 to 383 and Reference Compounds A-1, B-1, B-2, B-3, B-4, and C-1 in the HiBiT assays. Asterisks (*) indicate examples for which the data shown represents an average of n≥3.

[2] = target: IKZF2 (Homo sapiens, UniProt Q96SW2+Q9UKS7); test: HEK293 HiBiT in vitro degradation of IKZF2; assay type: cell-based; design: expressed in transfected cells; conditions: for Dmax: HEK293, HEK293 HiBiT; for Dmax / IKZF2 Dmax: maximum degradation at the highest concentration tested; for DC50 / IKZF2 Dmax: HEK293 HiBiT; for DC50: 18-24 hr incubation, normalized to DMSO control, read-out: IKZF2 EC50
Experimental: as §1, §2, §3, §4, §5, §6

Sequence of IKZF2 (Q9UKS7 1-500 isoform Q9UKS7-2): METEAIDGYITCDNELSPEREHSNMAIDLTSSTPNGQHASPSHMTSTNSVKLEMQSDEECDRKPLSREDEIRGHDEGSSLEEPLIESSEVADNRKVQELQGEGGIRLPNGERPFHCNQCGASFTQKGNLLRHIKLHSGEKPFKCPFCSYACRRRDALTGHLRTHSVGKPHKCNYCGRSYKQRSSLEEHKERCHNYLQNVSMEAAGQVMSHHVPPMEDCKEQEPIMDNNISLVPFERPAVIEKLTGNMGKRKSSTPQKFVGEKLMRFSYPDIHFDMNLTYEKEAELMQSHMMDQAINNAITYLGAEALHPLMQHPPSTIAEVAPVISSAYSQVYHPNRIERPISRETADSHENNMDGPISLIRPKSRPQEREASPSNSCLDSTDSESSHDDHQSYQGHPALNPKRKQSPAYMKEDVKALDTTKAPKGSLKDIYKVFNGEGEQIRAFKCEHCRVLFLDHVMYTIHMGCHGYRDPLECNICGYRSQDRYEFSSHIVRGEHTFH
Sequence of IKZF2 (Q96SW2 whole entry): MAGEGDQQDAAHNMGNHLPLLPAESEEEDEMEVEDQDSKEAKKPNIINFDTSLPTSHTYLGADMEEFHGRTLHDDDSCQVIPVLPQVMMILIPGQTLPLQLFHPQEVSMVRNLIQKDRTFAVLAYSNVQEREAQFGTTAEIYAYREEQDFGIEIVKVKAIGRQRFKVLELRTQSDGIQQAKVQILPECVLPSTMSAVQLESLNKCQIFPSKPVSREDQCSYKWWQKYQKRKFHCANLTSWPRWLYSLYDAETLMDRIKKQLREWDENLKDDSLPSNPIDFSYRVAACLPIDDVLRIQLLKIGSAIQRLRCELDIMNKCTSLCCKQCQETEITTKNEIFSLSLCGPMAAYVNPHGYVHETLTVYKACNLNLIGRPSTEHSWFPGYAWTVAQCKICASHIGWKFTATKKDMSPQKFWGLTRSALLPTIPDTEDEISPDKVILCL
Sequence of IKZF2 (Q16531 whole entry partner): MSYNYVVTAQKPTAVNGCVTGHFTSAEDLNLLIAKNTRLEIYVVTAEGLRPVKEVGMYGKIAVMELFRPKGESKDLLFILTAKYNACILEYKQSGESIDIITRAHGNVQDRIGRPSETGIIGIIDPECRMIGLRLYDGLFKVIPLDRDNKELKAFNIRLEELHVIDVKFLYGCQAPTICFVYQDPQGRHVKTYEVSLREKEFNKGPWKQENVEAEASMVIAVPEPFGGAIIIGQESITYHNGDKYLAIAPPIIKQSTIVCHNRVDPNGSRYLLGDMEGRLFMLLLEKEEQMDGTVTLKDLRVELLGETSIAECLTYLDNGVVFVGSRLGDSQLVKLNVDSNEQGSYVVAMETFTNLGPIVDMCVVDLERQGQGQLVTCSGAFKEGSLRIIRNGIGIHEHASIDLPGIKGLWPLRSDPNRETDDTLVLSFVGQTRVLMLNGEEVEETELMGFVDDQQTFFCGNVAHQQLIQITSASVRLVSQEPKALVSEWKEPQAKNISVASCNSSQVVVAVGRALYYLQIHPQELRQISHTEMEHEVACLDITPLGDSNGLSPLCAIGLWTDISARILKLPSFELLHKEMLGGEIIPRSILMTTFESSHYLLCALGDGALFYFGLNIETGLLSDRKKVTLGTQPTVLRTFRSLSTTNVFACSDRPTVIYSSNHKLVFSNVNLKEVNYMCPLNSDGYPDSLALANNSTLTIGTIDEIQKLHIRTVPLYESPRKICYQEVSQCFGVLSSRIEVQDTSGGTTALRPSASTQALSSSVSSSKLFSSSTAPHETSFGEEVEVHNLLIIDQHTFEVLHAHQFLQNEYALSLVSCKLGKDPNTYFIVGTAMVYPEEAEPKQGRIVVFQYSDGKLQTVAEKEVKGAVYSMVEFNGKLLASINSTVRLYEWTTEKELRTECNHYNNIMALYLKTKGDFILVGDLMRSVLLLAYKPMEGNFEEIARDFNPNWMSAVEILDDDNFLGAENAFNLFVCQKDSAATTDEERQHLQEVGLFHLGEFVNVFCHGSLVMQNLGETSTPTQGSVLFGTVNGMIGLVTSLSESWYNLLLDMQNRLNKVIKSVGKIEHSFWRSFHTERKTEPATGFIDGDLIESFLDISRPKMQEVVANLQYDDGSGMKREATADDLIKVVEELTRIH
T1 sequence (Q13422 whole entry): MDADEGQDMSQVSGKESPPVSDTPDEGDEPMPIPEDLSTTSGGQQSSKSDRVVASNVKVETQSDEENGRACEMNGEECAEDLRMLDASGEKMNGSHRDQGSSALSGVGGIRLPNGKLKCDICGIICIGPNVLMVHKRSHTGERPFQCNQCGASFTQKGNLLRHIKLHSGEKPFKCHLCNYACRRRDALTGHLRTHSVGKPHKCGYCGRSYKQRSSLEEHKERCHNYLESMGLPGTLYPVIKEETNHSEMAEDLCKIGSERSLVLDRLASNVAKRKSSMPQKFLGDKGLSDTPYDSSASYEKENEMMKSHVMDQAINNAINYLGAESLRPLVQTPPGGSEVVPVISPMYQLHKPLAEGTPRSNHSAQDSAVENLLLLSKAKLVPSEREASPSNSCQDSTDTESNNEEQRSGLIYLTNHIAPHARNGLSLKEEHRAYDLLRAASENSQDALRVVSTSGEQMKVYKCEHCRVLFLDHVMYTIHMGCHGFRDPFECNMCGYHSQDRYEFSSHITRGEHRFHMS
T1 sequence (Q96SW2 whole entry): as the sequence (Q96SW2 whole entry) above
T1 sequence (Q16531 whole entry partner): as the sequence (Q16531 whole entry partner) above

| Structure (SMILES) | Dmax [1] | DC50 [1] | Dmax [2] | DC50 [2] | IKZF1 Dmax [1] | IKZF2 Dmax [2] |
| --- | --- | --- | --- | --- | --- | --- |
| CC1(C)CCC(N[C@H]2CCCO[C@@H]2Cc2ccc3c(c2F)CN(C2CCC(=O)NC2=O)C3=O)C1 (single isomer, unassigned) [Example 258] | 30% | 78 nM | 97% | 4 nM | – | – |
| CC1(C)CCC(N[C@H]2CCCO[C@@H]2Cc2ccc3c(c2F)CN(C2CCC(=O)NC2=O)C3=O)C1 (single isomer, unassigned) [Example 259] | – | 68 nM | – | 11 nM | 25% | 96% |
| O=C1CCC(N2Cc3cc(C[C@H]4CCCC[C@@H]4NC4CCCOC4)ccc3C2=O)C(=O)N1 (single isomer, unassigned) [Example 260] | – | > 1000 nM | 96% | 5 nM | – | – |
| O=C1CCC(N2Cc3cc(C[C@H]4CCCC[C@@H]4NC4CCCOC4)ccc3C2=O)C(=O)N1 (single isomer, unassigned) [Example 261] | – | > 1000 nM | – | 6 nM | – | 96% |
| O=C1CCC(N2Cc3c(ccc(C[C@H]4OCCC[C@@H]4NC4CCCOC4)c3F)C2=O)C(=O)N1 (single isomer, unassigned) [Example 262] | – | > 1000 nM | 85% | 72 nM | – | – |
| O=C1CCC(N2Cc3c(ccc(C[C@H]4OCCC[C@@H]4NC4CCCOC4)c3F)C2=O)C(=O)N1 (single isomer, unassigned) [Example 263] | – | > 1000 nM | – | 95 nM | – | 85% |
| COCC1CCC(N[C@H]2CCCO[C@@H]2Cc2ccc3c(c2F)CN(C2CCC(=O)NC2=O)C3=O)CC1 (single isomer, unassigned) [Example 264] | – | > 1000 nM | 96% | 6 nM | – | – |
| N#CC1CCC(N[C@H]2CCCC[C@@H]2Cc2ccc3c(c2)CN(C2CCC(=O)NC2=O)C3=O)CC1 (single isomer, unassigned) [Example 268] | – | 76 nM | – | 6 nM | 62% | 98% |
| N#CCC1CCC(N[C@H]2CCCC[C@@H]2Cc2ccc3c(c2)CN(C2CCC(=O)NC2=O)C3=O)CC1 (single isomer, unassigned) [Example 269] | 40% | 266 nM | 96% | 3 nM | – | – |
| N#CCC1CCC(N[C@H]2CCCC[C@@H]2Cc2ccc3c(c2)CN(C2CCC(=O)NC2=O)C3=O)CC1 (single isomer, unassigned) [Example 270] | – | 179 nM | – | 8 nM | 22% | 98% |
| O=C1CCC(N2Cc3cc(C[C@H]4CCCC[C@@H]4NC4CCC5(CC4)CC5(F)F)ccc3C2=O)C(=O)N1 (single isomer, unassigned) [Example 271] | 44% | 45 nM | 98% | 2 nM | – | – |
| CC1(C)OCCC1N[C@H]1CCCC[C@@H]1Cc1ccc2c(c1)CN(C1CCC(=O)NC1=O)C2=O (single isomer, unassigned) [Example 273] | – | > 1000 nM | 93% | 23 nM | – | – |
| CC1(C)OCCC1N[C@H]1CCCC[C@@H]1Cc1ccc2c(c1)CN(C1CCC(=O)NC1=O)C2=O (single isomer, unassigned) [Example 274] | 35% | 102 nM | – | 12 nM | – | 97% |
| CC1(C)CCCC(N[C@H]2CCCC[C@@H]2Cc2ccc3c(c2)CN(C2CCC(=O)NC2=O)C3=O)C1 (single isomer, unassigned) [Example 275] | – | > 1000 nM | 96% | 4 nM | – | – |
| CC1(C)CCCC(N[C@H]2CCCC[C@@H]2Cc2ccc3c(c2)CN(C2CCC(=O)NC2=O)C3=O)C1 (single isomer, unassigned) [Example 276] | – | > 1000 nM | – | 3 nM | – | 97% |
| COC1CCC(N[C@H]2CCCC[C@@H]2Cc2ccc3c(c2)CN(C2CCC(=O)NC2=O)C3=O)CC1 (single isomer, unassigned) [Example 278] | – | 125 nM | – | 4 nM | 37% | 98% |
